Experimental data: US20260115213A1 (priority 2021, published 2026)

How the values were obtained:
5′-UTR of beta-globin = conditions: HepG2 cells, 5, 10, 50 and 100 nM, 48 h, normalized to Renilla and DMSO control
[1] = molecular target: T1, eIF4A1(19-406)-(AG)5-AMPPNP complex (purified recombinant human eIF4A) (Homo sapiens, UniProt P60842); experiment: Thermal shift assay, melting temperature of eIF4A1(19-406)-(AG)5-AMPPNP-rocaglate complexes; format: binding; conditions: 5 μM eIF4A, 50 μM (AG)5 RNA, 1 mM AMP-PNP, 100 μM compound; DMSO negative control Tm=48.80
T1 construct: eIF4A1(19-406)=amino acid residues 19-406 of eIF4A1; made in house
T1 sequence (P60842 19-406, one chain of several): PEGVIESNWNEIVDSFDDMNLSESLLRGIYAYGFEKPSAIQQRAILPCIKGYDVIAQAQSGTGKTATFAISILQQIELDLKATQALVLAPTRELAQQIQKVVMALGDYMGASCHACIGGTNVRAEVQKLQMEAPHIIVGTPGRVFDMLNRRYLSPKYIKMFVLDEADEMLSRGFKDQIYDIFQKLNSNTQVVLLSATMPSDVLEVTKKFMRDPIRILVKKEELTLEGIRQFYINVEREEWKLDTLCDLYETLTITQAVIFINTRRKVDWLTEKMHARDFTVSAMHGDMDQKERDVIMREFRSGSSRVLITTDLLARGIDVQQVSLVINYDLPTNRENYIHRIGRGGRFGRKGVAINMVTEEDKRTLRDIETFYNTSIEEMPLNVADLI
Method: A thermal shift assay was performed to study the complexing of the synthetic rocaglates with the eIF4A complex. For the thermal shift assay a final protein concentration of 5 μM purified recombinant human eIF4A (purification according to Iwasaki, et al., 2019) was used. In a reaction volume of 20 μL a 10-fold excess of polypurine RNA ((AG)5) (biomers) (final concentration: 50 μM), 1 mM of the ATP analogue AMP-PNP (ROCHE™), 100 μM of the synthetic rocaglate compounds or DMSO as well as 0.3 μL SYPRO® Orange Protein Gel Stain (SIGMA-ALDRICH™) were mixed with the protein. The measurement was performed in a MICROAMP® Fast 96-Well Reaction Plate (0.1 mL, APPLIED BIOSYSTEMS™) using the QUANTSTUDIO3™ Real-Time PCR System (APPLIED BIOSYSTEMS™). The melt curve starting temperature was set to 10° C. in increments of 0.05° C./s ending at 95° C. After measurement, the data was analyzed using the PROTEIN THERMAL SHIFT™ Software (APPLIED BIOSYSTEMS™).

5′-UTR of (AG)15 = conditions: HepG2 cells, 5, 10, 50 and 100 nM, 48 h, normalized to Renilla and DMSO control
[2] = system: RNA viruses representing different virus families (EBOV, CoV, ZIKV, CHIKV, HEV); conditions: non-cytotoxic concentrations; cited from earlier work

Compound | melting temperature (Tm) of eIF4A1(19-406)-(AG)5-AMPPNP-Rocaglate complex [1] | also measured
CONC(=O)[C@H]1[C@@H](O)[C@@]2(O)c3c(OC)cc(OC)cc3O[C@@]2(c2ccc(O)cc2)[C@@H]1c1ccccc1 [Compound 1, (1R,2R,3S,3aR,8bS)-1,8b-dihydroxy-3a-(4-hydroxyphenyl)-N,6,8-trimethoxy-3-phenyl-2,3-dihydro-1Hcyclopenta[b]benzofuran-2-carboxamide] | 51.49 | reporter activity, β-globin 5′-UTR (eIF4A-independent effect) (5′-UTR of beta-globin): nonspecific effects
CONC(=O)[C@H]1[C@@H](O)[C@@]2(O)c3c(OC)cc(O)cc3O[C@@]2(c2ccc(OC)cc2)[C@@H]1c1ccccc1 [Compound 6, (1R,2R,3S,3aR,8bS)-1,6,8b-trihydroxy-N,8-dimethoxy-3a-(4-methoxyphenyl)-3-phenyl-2,3-dihydro-1Hcyclopenta[b]benzofuran-2-carboxamide] | 51.29 | –
CONC(=O)[C@@H]1[C@H](O)[C@]2(O)c3c(OC)cc(O)cc3O[C@]2(c2ccc(OC)cc2)[C@H]1c1ccccc1 [Compound 7, (1S,2S,3R,3aS,8bR)-1,6,8b-trihydroxy-N,8-dimethoxy-3a-(4-methoxyphenyl)-3-phenyl-2,3,3a,8b-tetrahydro-1H-cyclopenta[b]benzofuran-2-carboxamide] | 49.07 | –
COc1cc(OC)c2c(c1)O[C@]1(c3ccc(O)cc3)[C@@H](c3ccccc3)[C@H](C(N)=O)[C@H](O)[C@]21O [Compound 8, (1S,2S,3R,3aS,8bR)-1,8b-dihydroxy-3a-(4-hydroxyphenyl)-6,8-dimethoxy-3-phenyl-2,3-dihydro-1H-cyclopenta[b]benzofuran-2-carboxamide] | 51.07 | –
COc1cc(OC)c2c(c1)O[C@@]1(c3ccc(O)cc3)[C@H](c3ccccc3)[C@@H](C(N)=O)[C@@H](O)[C@@]21O [Compound 9, (1R,2R,3S,3aR,8bS)-1,8b-dihydroxy-3a-(4-hydroxyphenyl)-6,8-dimethoxy-3-phenyl-2,3-dihydro-1H-cyclopenta[b]benzofuran-2-carboxamide] | 55.44 | reporter activity, (AG)15 5′-UTR (eIF4A-dependency) (5′-UTR of (AG)15): only reduced reporter activity with polyAG sequences
COC(=O)[C@H]1[C@@H](O)[C@@]2(O)c3c(OC)cc(O[C@@H]4O[C@@H]([C@H](O)CO)CO[C@H]4OC)cc3O[C@@]2(c2ccc(OC)cc2)[C@@H]1c1ccccc1 [Silvestrol, methyl (1R,2R,3S,3aR,8bS)-6-[[(2S,3R,6R)-6-[(1R)-1,2-dihydroxyethyl]-3-methoxy-1,4-dioxan-2-yl]oxy]-1,8b-dihydroxy-8-methoxy-3a-(4-methoxyphenyl)-3-phenyl-2,3-dihydro-1H-cyclopenta[b][1]benzofuran-2-carboxylate] | – | concentration range of broad-spectrum antiviral activity [2]: low nanomolar range
